Experimental data: US4005213A, “2,5-Substituted-1,3,4-thiadiazoles as fungicides” (Schering Aktiengesellschaft, priority 1968, dated 1977)

Legend:
Pythium ultimum [1] = experiment: Pea test in soil inoculated with Pythium ultimum (Example 2); format: in vivo; set-up: key to Root evaluation (1-4): 4 = white roots, no necroses … 1 = severe necroses, roots rotted; conditions: for Number of sound peas after 3 wks.: 25 grains seeded; for Root evaluation (1-4): 3 weeks
Description: Steamed compost soil was inoculated with mycelium of Pythium ultimum. […] The following table lists the number of germinated sound peas, the weight of the fresh plant, and a root evaluation after a cultivation period of 3 weeks at 22°-25° C.
4 = white roots, without fungus necroses
3 = white roots, slight fungus necroses
2 = brown roots, more intense fungus necroses
1 = severe fungus necroses, roots rotted

Rhizoctonia solani [2] = experiment: Pea test in soil inoculated with Rhizoctonia solani (Example 3); format: in vivo; conditions: for Number of sound peas after 3 wks.: 25 grains seeded; for Root evaluation (1-4): 3 weeks
Source text: Steamed compost soil was inoculated with mycelium of Rhizoctonia solani. After homogeneous mixture of the products with the infested soil, the products were present in the form of 20% powder preparations, the seeding of 25 grains of marrow peas of the variety Miracle of Kelvedon per concentration was effected without waiting period in clay dishes holding 1 liter of soil. The table lists the number of germinated sound peas, the weight of the fresh plant, and a root evaluation after a cultivation period of 3 weeks at 22°-25° C.

[3] = tested on: Fusarium oxysporum f. callistephi; experiment: Soil inoculated with Fusarium oxysporum f. callistephi, Callistephus chinensis host plants (Example 5); format: in vivo; conditions: four seedlings per concentration
Source text: Steamed compost soil was inoculated with a spore suspension of Fusarium oxysporum f. callistephi. After homogeneous mixture of the products with the infested soil, the products were present as 20% powder preparations, and after a waiting period of 8 days, there were set out per concentration four seedlings of Callistephus chinensis, master aster "Sun Ray" as host plants.

Pythium ultimum [4] = experiment: Limit concentration of soil-fungicidal effectiveness, Pythium ultimum infested soil, peas (Example 1); format: in vivo; conditions: Globisporangium ultimum, 20 to 23 days, 22°-25° C., germination at least 90% vs steamed soil
Description: Limit concentrations of the soil-fungicidal effectiveness at homogeneous mixture of the products with the infested soil. Basic condition in the evaluation are a sound root formation without fungus necroses and germination of the seed of at least 90% compared with the result obtained in steamed soil. Per concentration there were seeded 25 grains of peas of the variety "Miracle of Kelvedon" (marrow pea) without a waiting period. the cultivation time in the tests was 20 to 23 days at a temperature of 22°-25° C. Four commercial products were included in the test series.
Pythium ultimum: Steamed compost soil was inoculated with mycelium of Pythium ultimum

Aspergillus niger = experiment: Agar test, Aspergillus niger (Example 7); format: cell-based; conditions: 10 ppm in malt extract agar, 5 days at 22° C.; control 100
Description: (§1) The fungicidal action of the agents according to the invention was tested in artificial nutrient media against plant-pathogenic fungi in Petri dishes (agar test). The procedure was to sterilize the medium consisting of 2% malt extract and 1.5% agar-agar powder. Before the solidification of the medium, the active substances were added to it, mixing thoroughly, so that the medium received 10 parts of active substance per million (ppm). After the solidification of the medium, the latter was inoculated with a platinum dropper which contained 100 spores each of the fungi to be tested, and after 5 days at 22° C., an evaluation was made by measuring the diameter of the colonies in mm.

Stemphylium ilicis = experiment: Agar test, Stemphylium ilicis (Example 7); format: cell-based; conditions: 10 ppm in malt extract agar, 5 days at 22° C.; control 100
Description: as §1

Pythium ultimum [5] = experiment: Fungicidal effect in the vapor phase, Pythium ultimum (Example 11); format: cell-based; conditions: even at 1 mg active ingredient per liter; 3 days, 22° C.; 10% powder
Description: (§2) Nutrient medium inoculated with nycelium of Pythium ultimum or Rhizoctonia solani in open Petri dishes was placed in glass vessels 12 cm tall. First the quantity of product as a 10% powder preparation had been placed on the bottom of the glasses. After a reaction time of 3 days (Pythium) and 5 days (Rhizoctonia) at a temperature of 22° C. in the covered glass vessel, the mycelium growth was evaluated.

Rhizoctonia solani [6] = experiment: Fungicidal effect in the vapor phase, Rhizoctonia solani (Example 11); format: cell-based; conditions: even at 1 mg active ingredient per liter; 5 days, 22° C.; 10% powder
Description: as §2

Damping-off Fungi = experiment: Cotton seed disinfection in normal compost soil (Example 6); format: in vivo; conditions: 100 mg active ingr. per kg of seed, 15 days, 22°-25° C.
Description: Cotton seeds disinfected with 10% formulations were seeded in normal compost soil (Damping-off Fungi), 25 grains per concentration. After a cultivation time of 15 days at 22°-25° C., the number of germinated sound cotton seedlings and their weight as fresh plants were determined.

Meloidogyne incognita = experiment: Nematocidal action against root gall nematodes, cucumber (Example 8); format: in vivo; conditions: reduction of attack, 30 days
Description: The products as 20% powder preparations were homogeneously admixed with a compost soil heavily infested by root gall nematodes. Without a waiting period, 20 cucumber seeds per concentration were seeded. After a cultivation time of 30 days at a temperature of 23°-25° C., the nematocidal action was evaluated by counting the root galls formed in the waterbath. The following table states the reduction of attack in percent. In the control, an average of 90 root galls per seedling had formed.

[7] = 200 mg active ingr. per liter of soil
[8] = 10 mg active ingr. per liter of soil
[9] = 20 mg active ingr. per liter of soil
[10] = 30 mg active ingr. per liter of soil
[11] = 50 mg active ingr. per liter of soil
[12] = 100 mg active ingr. per liter of soil
[13] = 40 mg active substance per liter of soil
[14] = 60 mg active substance per liter of soil

COc1cc(Cl)c(OC)cc1Cl [1,4-dichloro-2,5-dimethoxybenzene, reference compound]
Number of sound peas after 3 wks. (Pythium ultimum [1]; [7]): 2
Number of sound peas after 3 wks. (Rhizoctonia solani [2]; [8]): 0
Number of sound peas after 3 wks. (Rhizoctonia solani [2]; [9]): 0
Number of sound peas after 3 wks. (Rhizoctonia solani [2]; [10]): 21
Number of sound peas after 3 wks. (Rhizoctonia solani [2]; 40 mg active ingr. per liter of soil): 22
No. of attacked plants after 3 weeks [3, 11]: 4
No. of attacked plants after 3 weeks [3, 12]: 4
No. of attacked plants after 3 weeks [3, 7]: 4

CS(=O)(=O)c1nnc(C(F)(F)F)s1 [Compound 1, 2-trifluoromethyl-5-methylsulfonyl-1,3,4-thiadiazole]
minimal effective concentration (Pythium ultimum [4]): 10 µg/mL
Root evaluation (1-4) (Pythium ultimum [1]; [8]): 4
Root evaluation (1-4) (Pythium ultimum [1]; [9]): 4
Number of sound peas after 3 wks. (Pythium ultimum [1]; [9]): 22
Root evaluation (1-4) (Pythium ultimum [1]; [10]): 4
diameter of the colonies, Aspergillus niger (Aspergillus niger): 0 mm
diameter of the colonies, Stemphylium ilicis (Stemphylium ilicis): 0 mm
mycelium growth, Pythium ultimum, vapor phase (Pythium ultimum [5]): no mycelium growth
mycelium growth, Rhizoctonia solani, vapor phase (Rhizoctonia solani [6]): no mycelium growth

C[S+]([O-])c1nnc(C(Cl)Cl)s1 (centres unmarked) [Compound 3, 2-dichloromethyl-5-methylsulfinyl-1,3,4-thiadiazole]
minimal effective concentration (Pythium ultimum [4]): 10 µg/mL
Root evaluation (1-4) (Pythium ultimum [1]; [8]): 4
Root evaluation (1-4) (Pythium ultimum [1]; [9]): 4
Root evaluation (1-4) (Pythium ultimum [1]; [10]): 4
Number of sound peas after 3 wks. (Rhizoctonia solani [2]; [8]): 0
Root evaluation (1-4) (Rhizoctonia solani [2]; [9]): 1
Root evaluation (1-4) (Rhizoctonia solani [2]; [10]): 4
Sound plants in % (Damping-off Fungi): 100%
diameter of the colonies, Aspergillus niger (Aspergillus niger): 50 mm
diameter of the colonies, Stemphylium ilicis (Stemphylium ilicis): 0 mm
Nematocidal action in % (Meloidogyne incognita) (Meloidogyne incognita; [13]): 100%
Nematocidal action in % (Meloidogyne incognita) (Meloidogyne incognita; [14]): 100%

CC[S+]([O-])c1nnc(C(Cl)Cl)s1 (centres unmarked) [Compound 4, 2-dichloromethyl-5-ethylsulfinyl 1,3,4-thiadiazole]
minimal effective concentration (Pythium ultimum [4]): 100 µg/mL
Nematocidal action in % (Meloidogyne incognita) (Meloidogyne incognita; [13]): 96%
Nematocidal action in % (Meloidogyne incognita) (Meloidogyne incognita; [14]): 99%

CCC[S+]([O-])c1nnc(C(Cl)Cl)s1 (centres unmarked) [Compound 5, 2-dichloromethyl-5-propylsulfinyl-1,3,4-thiadiazole]
minimal effective concentration (Pythium ultimum [4]): 100 µg/mL
Nematocidal action in % (Meloidogyne incognita) (Meloidogyne incognita; [13]): 90%
Nematocidal action in % (Meloidogyne incognita) (Meloidogyne incognita; [14]): 98%

C[S+]([O-])c1nnc(C(Cl)(Cl)Cl)s1 (centres unmarked) [Compound 8, 2-trichloromethyl-5-methylsulfinyl-1,3,4-thiadiazole]
minimal effective concentration (Pythium ultimum [4]): 20 µg/mL
Root evaluation (1-4) (Pythium ultimum [1]; [8]): 1
Root evaluation (1-4) (Pythium ultimum [1]; [9]): 4
Root evaluation (1-4) (Pythium ultimum [1]; [10]): 4
Root evaluation (1-4) (Rhizoctonia solani [2]; [8]): 4
Root evaluation (1-4) (Rhizoctonia solani [2]; [9]): 4
Root evaluation (1-4) (Rhizoctonia solani [2]; [10]): 4
diameter of the colonies, Aspergillus niger (Aspergillus niger): 0 mm
diameter of the colonies, Stemphylium ilicis (Stemphylium ilicis): 0 mm

CC[S+]([O-])c1nnc(C(Cl)(Cl)Cl)s1 (centres unmarked) [Compound 9, 2-trichloromethyl-5-ethylsulfinyl-1,3,4-thiadiazole]
minimal effective concentration (Pythium ultimum [4]): 200 µg/mL
Root evaluation (1-4) (Rhizoctonia solani [2]; [8]): 4
Root evaluation (1-4) (Rhizoctonia solani [2]; [9]): 4
Root evaluation (1-4) (Rhizoctonia solani [2]; [10]): 4
diameter of the colonies, Aspergillus niger (Aspergillus niger): 0 mm
diameter of the colonies, Stemphylium ilicis (Stemphylium ilicis): 0 mm

CCS(=O)(=O)c1nnc(C(Cl)Cl)s1 [Compound 18, 2-dichloromethyl-5-ethylsulfonyl-1,3,4-thiadiazole]
minimal effective concentration (Pythium ultimum [4]): > 200 µg/mL
diameter of the colonies, Aspergillus niger (Aspergillus niger): 0 mm
diameter of the colonies, Stemphylium ilicis (Stemphylium ilicis): 0 mm
Nematocidal action in % (Meloidogyne incognita) (Meloidogyne incognita; [13]): 61%
Nematocidal action in % (Meloidogyne incognita) (Meloidogyne incognita; [14]): 90%

CCCS(=O)(=O)c1nnc(C(Cl)Cl)s1 [Compound 19, 2-dichloromethyl-5-propylsulfonyl-1,3,4-thiadiazole]
minimal effective concentration (Pythium ultimum [4]): 100 µg/mL
diameter of the colonies, Aspergillus niger (Aspergillus niger): 0 mm
diameter of the colonies, Stemphylium ilicis (Stemphylium ilicis): 0 mm
Nematocidal action in % (Meloidogyne incognita) (Meloidogyne incognita; [13]): 72%
Nematocidal action in % (Meloidogyne incognita) (Meloidogyne incognita; [14]): 82%

CCCS(=O)(=O)c1nnc(C(Cl)(Cl)Cl)s1 [Compound 23, 2-trichloromethyl-5-propylsulfonyl-1,3,4-thiadiazole]
minimal effective concentration (Pythium ultimum [4]): 150 µg/mL
Root evaluation (1-4) (Rhizoctonia solani [2]; [8]): 1
Root evaluation (1-4) (Rhizoctonia solani [2]; [9]): 3
Root evaluation (1-4) (Rhizoctonia solani [2]; [10]): 4
diameter of the colonies, Aspergillus niger (Aspergillus niger): 0 mm
diameter of the colonies, Stemphylium ilicis (Stemphylium ilicis): 0 mm

CS(=O)(=O)c1nnc(C(Br)Br)s1 [Compound 32, 2-dibromomethyl-5-methylsulfonyl-1,3,4-thiadiazole]
minimal effective concentration (Pythium ultimum [4]): 20 µg/mL
diameter of the colonies, Aspergillus niger (Aspergillus niger): 0 mm
diameter of the colonies, Stemphylium ilicis (Stemphylium ilicis): 0 mm

C[S+]([O-])c1nnc(C(F)(F)F)s1 (centres unmarked) [Compound 35, 2-trifluoromethyl-5-methylsulfinyl-1,3,4-thiadiazole]
minimal effective concentration (Pythium ultimum [4]): 10 µg/mL
mycelium growth, Pythium ultimum, vapor phase (Pythium ultimum [5]): no mycelium growth
mycelium growth, Rhizoctonia solani, vapor phase (Rhizoctonia solani [6]): no mycelium growth

CC[S+]([O-])c1nnc(C(F)(F)F)s1 (centres unmarked) [Compound 36, 2-trifluoromethyl-5-ethylsulfinyl-1,3,4-thiadiazole]
minimal effective concentration (Pythium ultimum [4]): 10 µg/mL
mycelium growth, Pythium ultimum, vapor phase (Pythium ultimum [5]): no mycelium growth
mycelium growth, Rhizoctonia solani, vapor phase (Rhizoctonia solani [6]): no mycelium growth

CCS(=O)(=O)c1nnc(C(F)(F)F)s1 [Compound 40, 2-trifluoromethyl-5-ethylsulfonyl-1,3,4-thiadiazole]
minimal effective concentration (Pythium ultimum [4]): 10 µg/mL
mycelium growth, Pythium ultimum, vapor phase (Pythium ultimum [5]): no mycelium growth
mycelium growth, Rhizoctonia solani, vapor phase (Rhizoctonia solani [6]): no mycelium growth

O=C1C2CC=CCC2C(=O)N1SC(Cl)(Cl)Cl (centres unmarked) [N-(trichloromethylthio)-cyclohex-4-ene-1,2-dicarboximide]
Root evaluation (1-4) (Pythium ultimum [1]; [7]): 1
Number of sound peas after 3 wks. (Pythium ultimum [1]; [7]): 13
No. of attacked plants after 3 weeks [3, 11]: 4
No. of attacked plants after 3 weeks [3, 12]: 4
No. of attacked plants after 3 weeks [3, 7]: 4
